Reference: patent publication US11591341B2 (ALIGOS THERAPEUTICS, INC., priority 2019, dated 2023)
pEC50: −log10 of the molar value.

Test system: HBV
Experiment: HBV-DNA Antiviral Assay Using HepG2.117 Cells (intracellular HBV DNA by qPCR)
Assay type: cell-based, hepatitis B virus (genotype D)
Conditions: Hepatitis B virus, HepG2.117
How it was run: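 Endpoint: qPCR copy number of intracellular HBV DNA after 3-day compound exposure, with inhibition set relative to the 2% DMSO control. The cells were doxycycline-free HepG2.117 carrying a Tet-off genotype D genome, dosed at nine 4-fold dilutions. A duplicate plate gave ATP-based viability (CC50).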

SMILES	pEC50
CC(C)(Oc1ccc(CNC(=O)c2c3n(c(=O)n2-c2ccc(OCC(F)(F)F)cc2)CCN(C(=O)c2ccc(Br)c(Cl)c2)C3)c(F)c1)C(N)=O [Example 428, N-[[4-(2-amino-1,1-dimethyl-2-oxo-ethoxy)-2-fluoro-phenyl]methyl]-7-(4-bromo-3-chloro-benzoyl)-3-oxo-2-[4-(2,2,2-trifluoroethoxy)phenyl]-6,8-dihydro-5H-imidazo[1,5-a]pyrazine-1-carboxamide]	6.30 to 7.00
COc1cc(CNC(=O)c2c3n(c(=O)n2-c2ccc(OC(C)C)cc2)CCN(C(=O)c2ccc(Br)c(Cl)c2)C3)ccc1C#N [Example 211, 7-(4-bromo-3-chloro-benzoyl)-N-[(4-cyano-3-methoxy-phenyl)methyl]-2-(4-isopropxoyphenyl)-3-oxo-6,8-dihydro-5H-imidazo[1,5-a]pyrazine-1-carboxamide]	5.30 to 6.30
COc1ccc(-n2c(C(=O)NCc3ccc(OCC(=O)O)cc3)c3n(c2=O)CCN(C(=O)c2ccc(Br)c(Cl)c2)C3)cc1 [Example 204, 2-[4-[[[7-(4-bromo-3-chloro-benzoyl)-2-(4-methoxyphenyl)-3-oxo-6,8-dihydro-5H-imidazo[1,5-a]pyrazine-1-carbonyl]amino]methyl]phenoxy]acetic acid]	< 5.30
O=C(NCc1ccccc1)c1c2n(c(=O)n1-c1ccc(OC3CC3)cc1)CCN(C(=O)c1cc(Cl)c(Br)cc1F)C2 [Example 446, N-benzyl-7-(4-bromo-5-chloro-2-fluoro-benzoyl)-2-[4-(cyclopropoxy)phenyl]-3-oxo-6,8-dihydro-5H-imidazo[1,5-a]pyrazine-1-carboxamide]	< 5.30
NC(=O)c1ccc(-n2c(C(=O)NCc3ccccc3)c3n(c2=O)CCN(C(=O)c2ccc(Br)c(Cl)c2)C3)cc1 [Example 25, N-benzyl-7-(4-bromo-3-chloro-benozyl)-2-(4-carbamoylphenyl)-3-oxo-6,8-dihydro-5H-imidazo[1,5-a]pyrazine-1-carboxamide]	< 5.30
O=C(NCc1ccccc1)c1c2n(c(=O)n1-c1ccc(-n3cccn3)cc1)CCN(C(=O)c1ccc(Br)c(Cl)c1)C2 [Example 271, N-benzyl-7-(4-bromo-3-chloro-benzoyl)-3-oxo-2-(4-pyrazol-1-ylphenyl)-6,8-dihydro-5H-imidazo[1,5-a]pyrazine-1-carboxamide]	6.30 to 7.00
C[C@@H](NC(=O)c1[nH]c(=O)n2c1CN(C(=O)c1ccc(Br)c(Cl)c1)CC2)c1ccccc1 (racemic) [Example 188, 7-(4-bromo-3-chloro-benzoyl)-3-oxo-N-[rac-(1R)-1-phenylethyl]-2,5,6,8-tetrahydroimidazo[1,5-a]pyrazine-1-carboxamide]	5.30 to 6.30
COc1ccc(-n2c(C(=O)NCc3ccccn3)c3n(c2=O)CCN(C(=O)c2ccc(Br)c(Cl)c2)C3)cc1 [Example 191, 7-(4-bromo-3-chloro-benzoyl)-2-(4-methoxyphenyl)-3-oxo-N-(2-pyridylmethyl)-6,8-dihydro-5H-imidazo[1,5-a]pyrazine-1-carboxamide]	5.30 to 6.30
COc1ccc(CN2CCCCn3c(c4n(c3=O)CCN(C(=O)c3ccc(Br)c(Cl)c3)C4)C2=O)cc1 [Example 135, 4-(4-bromo-3-chloro-benzoyl)-14-[(4-methoxyphenyl)methyl]-4,7,9,14-tetrazatricyclo[7.6.0.0^2,7]pentadec-1-ene-8.15-dione]	5.30 to 6.30
COc1ccc([C@@H](C)NC(=O)c2c3n(c(=O)n2-c2ccc(OC(C)C)cc2)CCN(C(=O)c2ccc(Br)c(Cl)c2)C3)c(F)c1 (stereo in doubt) [Example 245, 7-(4-bromo-3-chloro-benzoyl)-2-(4-isopropoxyphenyl)-3-oxo-N-[rac-(1R)-1-(2-fluoro-4-methoxy-phenyl)ethyl]-6,8-dihydro-5H-imidazo[1,5-a]pyrazine-1-carboxamide]	> 7.00
C[C@@H]1Cn2c(c(C(=O)NCc3ccccc3-n3cccn3)n(-c3ccc(OC4CC4)cc3)c2=O)CN1C(=O)c1ccc(Br)c(Cl)c1 (stereo in doubt) [Example 439, rac-(6R)-7-(4-bromo-3-chloro-benzoyl)-2-[4-(cyclopropoxy)phenyl]-6-methyl-3-oxo-N-[(2-pyrazol-1-ylphenyl)methyl]-6,8-dihydro-5H-imidazo[1,5-a]pyrazine-1-carboxamide]	6.30 to 7.00
O=C(NCc1ccccc1)c1c2n(c(=O)n1-c1ccc(-n3cncn3)cc1)CCN(C(=O)c1ccc(Br)c(Cl)c1)C2 [Example 395, N-benzyl-7-(4-bromo-3-chloro-benzoyl)-3-oxo-2-[4-(1,2,4-triazol-1-yl)phenyl]-6,8-dihydro-5H-imidazo[1,5-a]pyrazine-1-carboxamide]	5.30 to 6.30
COc1ccc(-n2c(C(=O)N[C@@H](C)c3ccccc3)c3n(c2=O)CCN(C(=O)c2ccc(Br)c(Cl)c2)C3)cc1 (stereo in doubt) [Example 69, 7-(4-bromo-3-chloro-benzoyl)-2-(4-methoxypehnyl)-3-oxo-N-[rac-(1S)-1-phenylethyl]-6,8-dihydro-5H-imidazo[1,5-a]pyrazine-1-carboxamide]	6.30 to 7.00
COc1ccc(-n2c(C(=O)NCc3ccccc3C#N)c3n(c2=O)CCN(C(=O)c2ccc(Br)c(Cl)c2)C3)cc1 [Example 154, 7-(4-bromo-3-chloro-benzoyl)-N-[(2-cyanophenyl)methyl]-2-(4-methoxyphenyl)-3-oxo-6,8-dihydro-5H-imidazo[1,5-a]pyrazine-1-carboxamide]	6.30 to 7.00
CC1Cn2c(c(C(=O)NCc3ccccc3-c3ncccn3)n(-c3ccc(OC4CC4)cc3)c2=O)CN1C(=O)c1ccc(Br)c(C#N)c1 (racemic) [Example 451, rac-(6R)-7-(4-bromo-3-cyano-benzoyl)-2-[4-(cyclopropoxy)phenyl]-6-methyl-3-oxo-N-[(2-pyrimidin-2-ylphenyl)methyl]-6,8-dihydro-5H-imidazo[1,5-a]pyrazine-1-carboxamide]	6.30 to 7.00
COc1ccc(-n2c(C(=O)N[C@H](C)c3ccccc3)c3n(c2=O)CCN(C(=O)c2ccc(Cl)c(Cl)c2)C3)cc1 (stereo in doubt) [Example 68, 7-(3,4-dichlorobenzoyl)-2-(4-methoxyphenyl)-3-oxo-N-[rac-(1R)-1-phenylethyl]-6,8-dihydro-5H-imidazo[1,5-a]pyrazine-1-carboxamide]	5.30 to 6.30
COc1ccc(-n2c(C(=O)NCc3ccc(C#N)cc3)c3n(c2=O)CCN(C(=O)c2ccc(Cl)c(Cl)c2)C3)cc1 [Example 84, N-[(4-cyanophenyl)methyl]-7-(3,4-dichlorobenzoyl)-2-(4-methoxyphenyl)-3-oxo-6,8-dihydro-5H-imidazo[1,5-a]pyrazine-1-carboxamide]	< 5.30
O=C(NCc1ccccc1-n1cccn1)c1c2n(c(=O)n1-c1ccc(OC3CC3)cc1)CCN(C(=O)c1ccc(Br)c(Cl)c1)C2 [Example 457, 7-(4-bromo-3-chloro-benzoyl)-2-[4-(cyclopropoxy)phenyl]-3-oxo-N-[(2-pyrazol-1-ylphenyl)methyl]-6,8-dihydro-5H-imidazo[1,5-a]pyrazine-1-carboxamide]	> 7.00
Cn1ncc2cc(-n3c(C(=O)NCc4ccccc4)c4n(c3=O)CCN(C(=O)c3ccc(Br)c(Cl)c3)C4)ccc21 [Example 364, N-benzyl-7-(4-bromo-3-chloro-benzoyl)-2-(1-methylindazol-5-yl)-3-oxo-6,8-dihydro-5H-imidazo[1,5-a]pyrazine-1-carboxamide]	6.30 to 7.00
C[C@@H](Oc1ccc([C@@H](C)NC(=O)c2c3n(c(=O)n2-c2ccc(OCC(F)(F)F)cc2)CCN(C(=O)c2ccc(Br)c(Cl)c2)C3)c(F)c1)C(N)=O (stereo in doubt) [Example 359, 7-(4-bromo-3-chloro-benzoyl)-3-oxo-N-[rac-(1R)-1-[2-fluoro-4-[rac-(1R)-2-amino-1-methyl-2-oxo-ethoxy]phenyl]ethyl]-2-[4-(2,2,2-trifluoroethoxy)phenyl]-6,8-dihydro-5H-imidazo[1,5-a]pyrazine-1-carboxamide]	5.30 to 6.30
COc1ccc(-n2c(C(=O)NCc3ccc4[nH]ncc4c3)c3n(c2=O)CCN(C(=O)c2ccc(Cl)c(Cl)c2)C3)cc1 [Example 107, 7-(3,4-dichlorobenzoyl)-N-(1H-indazol-5-ylmethyl)-2-(4-methoxyphenyl)-3-oxo-6,8-dihydro-5H-imidazo[1,5-a]pyrazine-1-carboxamide]	5.30 to 6.30
CN(Cc1ccccc1)C(=O)c1c2n(c(=O)n1-c1ccccc1)CCN(C(=O)c1ccc(Br)c(Cl)c1)C2 [Example 27, N-benzyl-7-(4-bromo-3-chloro-benzoyl)-N-methyl-3-oxo-2-phenyl-6,8-dihydro-5H-imidazo[1,5-a]pyrazine-1-carboxamide]	5.30 to 6.30
C[C@H](NC(=O)c1c2n(c(=O)n1-c1ccc(OCC(F)(F)F)cc1)CCN(C(=O)c1ccc(Br)c(Cl)c1)C2)c1cccc2nccnc12 (stereo in doubt) [Example 384, 7-(4-bromo-3-chloro-benzoyl)-3-oxo-N-[rac-(1S)-1-quinoxalin-5-ylethyl]-2-[4-(2,2,2-trifluoroethoxy)phenyl]-6,8-dihydro-5H-imidazo[1,5-a]pyrazine-1-carboxamide]	6.30 to 7.00
O=C(NCc1ccccc1-c1nnco1)c1c2n(c(=O)n1-c1ccc(OC3CC3)cc1)CCN(C(=O)c1ccc(Br)c(Cl)c1)C2 [Example 434, 7-(4-bromo-3-chloro-benzoyl)-2-[4-(cyclopropoxy)phenyl]-N-[[2-(1,3,4-oxadiazol-2-yl)phenyl]methyl]-3-oxo-6,8-dihydro-5H-imidazo[1,5-a]pyrazine-1-carboxamide]	> 7.00
CC(C)Oc1ccc(-n2c(C(=O)N[C@H](C)c3ccccc3)c3n(c2=O)CCN(C(=O)c2ccc(Cl)c(Cl)c2)C3)cc1 (stereo in doubt) [Example 130, 7-(3,4-dichlorobenzoyl)-2-(4-isopropoxyphenyl)-3-oxo-N-[rac-(1R)-1-phenylethyl]-6,8-dihydro-5H-imidazo[1,5-a]pyrazine-1-carboxamide]	6.30 to 7.00
